From paper PMC6695453, “Peptide translocation by the lysosomal ABC transporter TAPL is regulated by coupling efficiency and activation energy” (Scientific Reports, 2019)
Bridge positions count the residues as written; N and C are the ends. Ends that are not written are not given here. Peptide text beside a SMILES is read from it. I, II: the chains in the order shown.

Legend:
TAPL [1] = molecular target: T1, TAPL (Homo sapiens, UniProt Q9NP78); assay: Peptide transport into TAPL proteoliposomes; assay type: biochemical; conditions: 15 min, 37 °C
T1 construct: Human coreTAPL (Q9NP78 UniProt, amino acid 143–766) fused C-terminally to mVenus; made in house; host or cells: Pichia pastoris SMD1168-His+
T1 sequence (Q9NP78 143-766): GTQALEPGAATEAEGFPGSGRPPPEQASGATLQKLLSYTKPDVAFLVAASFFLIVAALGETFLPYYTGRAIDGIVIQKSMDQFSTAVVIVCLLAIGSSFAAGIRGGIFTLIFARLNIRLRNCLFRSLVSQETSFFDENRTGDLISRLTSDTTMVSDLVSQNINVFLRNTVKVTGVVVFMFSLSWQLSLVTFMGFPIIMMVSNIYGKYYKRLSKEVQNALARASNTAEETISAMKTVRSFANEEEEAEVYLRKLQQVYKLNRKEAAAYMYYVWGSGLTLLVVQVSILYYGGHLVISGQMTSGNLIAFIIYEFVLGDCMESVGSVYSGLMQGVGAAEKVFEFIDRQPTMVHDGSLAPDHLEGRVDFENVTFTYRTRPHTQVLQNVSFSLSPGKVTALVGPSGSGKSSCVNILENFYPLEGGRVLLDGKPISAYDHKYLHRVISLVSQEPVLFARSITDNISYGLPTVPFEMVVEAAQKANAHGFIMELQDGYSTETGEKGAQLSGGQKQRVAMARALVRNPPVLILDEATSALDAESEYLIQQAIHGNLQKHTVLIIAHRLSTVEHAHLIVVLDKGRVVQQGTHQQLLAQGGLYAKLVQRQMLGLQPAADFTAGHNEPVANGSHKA
Protocol: (A) Proteoliposomes (0.5 mg/ml lipids) were incubated with 10 µM of 9-mer^FL peptide and 3 mM ATP, 3 mM ADP, without any nucleotide (−) or with 3 mM ATP in the presence of ortho-vanadate (Vi, 500 µM). […] […] Transport was performed in triplicates with error bars indicating SD.
CoreTAPL fused C-terminally to mVenus was produced in P. pastoris by large scale expression in a 7.5 liter Labfors4 reactor (Infors HT, Einsbach, Germany) by fed batch method and cell pellets were stored at −80 °C[14],[44]. Core[…] fused C-terminally to mVenus was produced in P. pastoris in Erlenmeyer flasks. TmrAB from T. thermophilus was expressed in Escherichia coli and cell pellets were stored at −80 °C[30]. CoreTAPL and TmrAB were purified and reconstituted (40:1 (wt/wt) lipid to protein) as described into unilamellar liposomes composed of E. coli polar lipids and DOPC (7:3 (wt/wt); Avanti Polar Lipids), which were ultrasonicated, five times frozen and thawed and extruded through a 400 nm polycarbonate filter (Avestin, Mannheim, Germany)[13],[14],[30]. Proteoliposomes were snap frozen in liquid nitrogen and stored at −80 °C. […] Concentration of coreTAPL and core[…] was determined by specific absorption of mVenus (ε515 = 45.950 M^−1cm^−1). For calculation of TmrAB concentration ε280 = 159.630 M^−1cm^−1 was applied.

TAPL [2] = molecular target: T1, TAPL; assay: NTP hydrolysis by TAPL, malachite green based assay; assay type: biochemical
Protocol: Kinetics were recorded under steady-state conditions in which peptide accumulation in proteoliposomes is far below saturation (Figs S2,S5).
ATP hydrolysis was determined by malachite green based assay in the absence or presence of 100 µM peptide (filled bar) or ortho-vanadate (500 µM, white bar) (A) or with increasing peptide concentrations (B). Hydrolysis rates of 16-mer and 18-mer peptide were fitted with equation 6. IC50 values, Hill coefficients and kcat are depicted in Table 1. […] All experiments were performed in triplicates, error bars indicate SD.
The reaction was started by the addition of NTP. Background and autohydrolysis were determined with 500 µM ortho-vanadate or in the absence of protein, respectively. Hydrolysis was stopped by the addition of 20 mM H2SO4, supplemented with malachite green solution (3 mM malachite green, 0.2% (v/v) Tween 20, 1.5% (w/v) ammoniummolybdate) and absorption was detected after 10 min incubation at room temperature at 620 nm using a microplate reader (CLARIOstar, BMG LABTECH). IC50 values for peptides were determined by6 v=vmin+vmax−vmin/1+10^(LOGIC50−[I])⋅n where v represents the peptide inhibitor [I] dependent hydrolysis rate, vmax the maximal hydrolysis rate in the absence of peptide, vmin the minimal hydrolysis rate at saturating peptide concentrations and n the Hill slope. IC50 represents the half maximal inhibitory peptide concentration.

TAPL [3] = molecular target: T1, TAPL; assay: NTP dependent peptide transport by TAPL; assay type: biochemical; conditions: 37 °C
Protocol: Subsequently, we performed Michaelis-Menten kinetics of 9-mer peptide (100 µM) transport using increasing ATP and GTP concentrations. […] Additionally, we quantified the nucleotide hydrolysis kinetics of ATP and GTP in the presence and absence of the 9-mer peptide. […] Moreover, we assume a subtle difference in the cross-talk between the nucleotide binding domain and the transmembrane domain, which is caused by the type of purine base.
(A) NTP dependent peptide transport was performed with 9-mer^FL peptide (100 µM). (B) NTP hydrolysis was analyzed in the presence of 9-mer peptide (100 µM) by radioactive based assay. Experiments were performed in triplicates, error bars indicate SD.

Pdr5 = conditions: cited from earlier work
Source text: Both nucleotides show the same Km and kcat values in respect of NTP hydrolysis. […] NTP dependent transport was found also for other ABC transporters. […] The full-length ABC transport Pdr5 from yeast hydrolyzes GTP and even UTP, but ...

CC(C)C[C@H](NC(=O)[C@H](CCC(=O)O)NC(=O)[C@@H](NC(=O)[C@H](CO)NC(=O)[C@H](CCCCNC(=O)[C@H](CCCCN)NC(=O)[C@H](CCCCN)NC(=O)[C@H](CCCCN)NC(=O)[C@H](CCCCN)NC(=O)[C@H](CCCCN)NC(=O)[C@H](CCCCN)NC(=O)[C@H](CCCCN)NC(=O)[C@@H](N)CCCCN)NC(=O)[C@H](CS)NC(=O)[C@H](Cc1ccc(O)cc1)NC(=O)[C@@H](N)CCCNC(=N)N)[C@@H](C)O)C(=O)O [16-mer, RYCK(K8)STEL] (I: H-KKKKKKKK / II: H-RYCKSTEL-OH; amide I:C-II:4; N-terminus assumed)
kcat(Pep) turnover number of peptide transport (TAPL [1]; proteoliposomes, 3 mM ATP, pH 7.5, fluorescein labeled (FL) peptides used, triplicates, SD, listed as 16-mer^FL): 0.00417 s⁻¹
ATP per translocated peptide (TAPL [2]; ATP hydrolysis at saturating peptide divided by peptide transport turnover): 100 ATP per translocated peptide
Hill slope of ATP hydrolysis inhibition (TAPL [2]; proteoliposomes, 3 mM ATP, 15 min, 37 °C, malachite green, unlabeled peptides): −2.09 ± 0.73
kcat(ATP) rate constant of ATP hydrolysis (TAPL [2]; under saturating peptide concentration, 3 mM ATP, 15 min, 37 °C, malachite green, unlabeled peptides): 0.367 ± 0.067 s⁻¹

Nc1ncnc2c1ncn2[C@@H]1O[C@H](COP(=O)(O)OP(=O)(O)OP(=O)(O)O)[C@@H](O)[C@H]1O [ATP]
fold turnover number of peptide transport, ATP over GTP (TAPL [3]; ATP vs GTP, 9-mer peptide (100 µM)): 6 fold
nucleotide hydrolysis by Pdr5 (in words) (Pdr5; GTP, UTP, ATP): highest efficiency

Clc1ccccc1C(c1ccccc1)(c1ccccc1)n1ccnc1 [clotrimazole]
effect on Pdr5 ATPase activity (in words) (Pdr5; ATP hydrolysis): inhibited
effect on Pdr5 GTP and UTP hydrolysis (in words) (Pdr5; GTP and UTP hydrolysis): not affected

[O]=[V]([O-])([O-])[O-] [ortho-vanadate]
inhibition of ATP dependent peptide translocation (in words) (TAPL [1]; ortho-vanadate 500 µM, 3 mM ATP, 10 µM 9-mer^FL): specifically inhibited
inhibition of GTP dependent peptide transport (in words) (TAPL [3]; ortho-vanadate 500 µM, 3 mM GTP, 10 µM 9-mer^FL, 15 min): inhibited
effect on basal ATP hydrolysis (in words) (TAPL [2]; 3 mM ATP, 15 min, 37 °C, malachite green, peptide up to 100 µM or ortho-vanadate 500 µM): blocked
effect on GTP hydrolysis (in words) (TAPL [2]; 3 mM GTP, 15 min, 37 °C, malachite green, 9-mer peptide 100 µM or ortho-vanadate 500 µM): inhibited

RRYC^FluoresceinKSTEL [9-mer^FL, fluorescein labeled 9-mer peptide]
Km (TAPL [1]; read-out: Km(Pep) of 9-mer transport with GTP, 3 mM GTP, proteoliposomes, triplicates, SD): 4.4 ± 0.8 µM

RRYQKSTELRRYQKSTEL [18-mer]
reduction of ATP hydrolysis (TAPL [2]; 100 µM peptide, 3 mM ATP, 15 min, 37 °C, vs absence of peptide): 50%
